Reference: ChEMBL document CHEMBL4373654, “Discovery of (aza)indole derivatives as novel respiratory syncytial virus fusion inhibitors” (Medchemcomm, 2019)
Values after ≈ are worked out from the molar mass of the structure shown. Active and inactive are the calls of the source. The calls are words filed in the database; no cut-off is given here.

Tests used:
[1] = test system: Respiratory syncytial virus; assay: Antiviral activity against Respiratory syncytial virus Long infected in HEp-2 cells assessed as reduction in virus induced cytopathic effect measured after 6 days by MTT assay; type: functional, organism-based; settings: human respiratory syncytial virus, HEp-2, 144 h
[2] = AUC in ICR mouse at 25 mg/kg, po administered as single dose; type: ADME, organism-based; settings: in vivo
[3] = Therapeutic index, ratio of CC50 for cytotoxicity against human Hep2 cells to EC50 for antiviral activity against Respiratory syncytial virus Long infected in HEp-2 cells; type: toxicity, cell-based; settings: read-out: Ratio CC50/EC50
[4] = Volume of distribution at steady state in ICR mouse at 5 mg/kg, iv administered as single dose; type: ADME, organism-based; settings: in vivo, read-out: Vdss
[5] = Clearance in ICR mouse at 5 mg/kg, iv or 25 mg/kg, po administered as single dose; type: ADME, organism-based; settings: in vivo
[6] = Solubility of compound by LYSA assay; type: physicochemical
[7] = Half life in ICR mouse at 25 mg/kg, po administered as single dose; type: ADME, organism-based; settings: in vivo
[8] = Cytotoxicity against human Hep2 cells assessed as reduction in cell viability after 6 days by MTT assay; type: cell-based; settings: HEp-2 cells
[9] = Clearance in ICR mouse at 2 mg/kg, iv or 10 mg/kg, po administered as single dose; type: ADME, organism-based; settings: in vivo
[10] = Oral bioavailability in ICR mouse at 10 mg/kg administered as single dose; type: ADME, organism-based; settings: in vivo
[11] = AUC in ICR mouse at 10 mg/kg, po administered as single dose; type: ADME, organism-based; settings: in vivo
[12] = Half life in ICR mouse at 10 mg/kg, po administered as single dose; type: ADME, organism-based; settings: in vivo
[13] = Volume of distribution at steady state in ICR mouse at 2 mg/kg, iv administered as single dose; type: ADME, organism-based; settings: in vivo, read-out: Vdss
[14] = test system: Respiratory syncytial virus; assay: Inhibition of Respiratory syncytial virus Long F protein expressed in Flp-In T-REx 293 cells assessed as cell-cell fusion at 1 nM after 3 days by microscopic analysis; type: cell-based
[15] = Oral bioavailability in ICR mouse at 25 mg/kg administered as single dose; type: ADME, organism-based; settings: in vivo
[16] = test system: Respiratory syncytial virus; assay: Inhibition of Respiratory syncytial virus Long F protein expressed in Flp-In T-REx 293 cells assessed as syncytia formation at 1 nM after 3 days by microscopic analysis; type: cell-based
[17] = test system: Respiratory syncytial virus; assay: Inhibition of Respiratory syncytial virus Long F protein expressed in Flp-In T-REx 293 cells assessed as reduction in syncytia formation at 10 nM after 3 days by microscopic analysis relative to control; type: cell-based

Structure (SMILES) | EC50 [1] [nM] | selectivity ratio [3] | CC50 at 144 h [8] [nM] | other results
CS(=O)(=O)CCn1c(CN2C(=O)C3(CC3)c3ccncc32)cc2cc(Cl)cnc21 | 26 | 1600 | 41700 | AUC [2]: 10200 µg/L/h; Vd [4]: 0.845 L/kg; clearance [5]: 23.7 mL/min/kg; solubility [6]: 5 µg/mL (≈ 11.6 µM); half-life [7]: 0.7 h
O=C1N(Cc2cc3cc(Cl)ccc3n2[C@H]2CCS(=O)(=O)C2)c2cnccc2C12CC2 | 9 | 4720 | 42500 | 
CS(=O)(=O)CCn1c(CN2C(=O)C3(CC3)c3ccncc32)cc2c(Br)cccc21 | 14 | 3560 | 49900 | 
CCc1cccc2c1cc(CN1C(=O)C3(CC3)c3ccncc31)n2CCS(C)(=O)=O | 220 | 395 | 86800 | 
CS(=O)(=O)CCn1c(CN2C(=O)C3(CC3)c3ccncc32)cc2nc(Cl)ccc21 | 63 | 1180 | 74500 | 
CS(=O)(=O)CCn1c(CN2C(=O)C3(CC3)c3ccncc32)cc2ccccc21 | 220 | 352 | 77500 | 
CS(=O)(=O)CCn1c(CN2C(=O)C3(CC3)c3ccncc32)cc2c(C#N)cccc21 | 940 | > 106 | > 100000 | 
CCS(=O)(=O)CCn1c(CN2C(=O)C3(CC3)c3ccncc32)cc2cc(Cl)ccc21 | 8 | > 12500 | > 100000 | 
CCS(=O)(=O)CCCn1c(CN2C(=O)C3(CC3)c3ccncc32)cc2cc(Cl)ccc21 | 3 | 17100 | 51200 | 
CS(=O)(=O)CCn1c(CN2C(=O)C3(CC3)c3cccnc32)cc2cc(Cl)ccc21 | 170 | > 588 | > 100000 | 
CS(=O)(=O)CCn1c(CN2C(=O)C3(CC3)c3ccncc32)cc2cc(Cl)ccc21 | 18 | 3740 | 67400 | AUC [2]: 1550 µg/L/h; Vd [4]: 1.38 L/kg; clearance [5]: 54.2 mL/min/kg; solubility [6]: 17 µg/mL (≈ 39.5 µM); half-life [7]: 0.64 h
C[S+]([O-])CCCn1c(CN2C(=O)C3(CC3)c3ccncc32)cc2cc(Cl)ccc21 (configuration not stated) | 9 | 10200 | 92100 | 
CS(=O)(=O)CCn1c(CN2C(=O)C3(CC3)c3cnccc32)cc2cc(Cl)ccc21 | 200 | 484 | 96800 | 
CS(=O)(=O)CCn1c(CN2C(=O)C3(CC3)c3ccncc32)cc2c(F)cccc21 | 190 | > 526 | > 100000 | 
COc1cccc2c1cc(CN1C(=O)C3(CC3)c3ccncc31)n2CCS(C)(=O)=O | 74 | > 1350 | > 100000 | 
CS(=N)(=O)CCCn1c(CN2C(=O)C3(CC3)c3ccncc32)cc2cc(Cl)ccc21 (configuration not stated) | 6 | 11400 | 68300 | 
CS(=O)(=O)CCn1c(CN2C(=O)C3(CC3)c3ccncc32)cc2c(Cl)cccc21 | 1670 | > 60 | > 100000 | 
CS(=O)(=O)CCc1c(Cn2c(=O)n(C3CC3)c3ccncc32)nc2cc(Cl)ccn12 |  |  |  | clearance [9]: 93.3 mL/min/kg; bioavailability [10]: 16.9%; AUC [11]: 315 µg/L/h; half-life [12]: 1.73 h; Vd [13]: 1.29 L/kg
CS(=O)(=O)CCn1c(CN2C(=O)C3(CC3)c3ccncc32)cc2cc(Cl)ncc21 | 330 | 300 | 98900 | 
CS(=O)(=O)CCn1c(CN2C(=O)C3(CC3)c3ccncc32)cc2cccc(Cl)c21 | 160 | 543 | 86900 | 
CS(=N)(=O)CCn1c(CN2C(=O)C3(CC3)c3ccncc32)cc2cc(Cl)ccc21 (configuration not stated) | 7 | 11200 | 78300 | 
CS(=O)(=O)CCCn1c(CN2C(=O)C3(CC3)c3ccncc32)cc2cc(Cl)ccc21 | 3 | 12900 | 38600 | 
CS(=O)(=O)CCCCn1c(CN2C(=O)C3(CC3)c3ccncc32)cc2cc(Cl)ccc21 | 6 | > 16700 | > 100000 | 
O=C1N(Cc2cc3cc(Cl)ccc3n2[C@@H]2CCS(=O)(=O)C2)c2cnccc2C12CC2 | 2 | 18600 | 37100 | inhibition [14]: inactive; AUC [2]: 3360 µg/L/h; Vd [4]: 2.35 L/kg; clearance [5]: 30.2 mL/min/kg; solubility [6]: 2 µg/mL (≈ 4.53 µM); bioavailability [15]: 24.5%; inhibition [16]: inactive; half-life [7]: 3.04 h; inhibition [17]: 100%
CS(=O)(=O)CCn1c(CN2C(=O)C3(CC3)c3ccncc32)cc2c(C(F)(F)F)cccc21 | 560 | > 179 | > 100000 | 
CS(=O)(=O)CCn1c(CN2C(=O)C3(CC3)c3ccncc32)cc2ccc(Cl)cc21 | 4830 | 12 | 59700 | 
Cc1cccc2c1cc(CN1C(=O)C3(CC3)c3ccncc31)n2CCS(C)(=O)=O | 9 | 6840 | 61600 | 
